Patent US9346761B2, “Arginine methyltransferase inhibitors and uses thereof” (Epizyme, Inc., priority 2013, dated 2016)
Like-named read-outs stand apart in the source and are kept apart here.

Experiments:
[1] = system: mono-methyl arginine in RKO cells; assay: RKO methylation assay, In Cell Western for mono-methyl arginine and DNA content; format: cell-based; conditions: Homo sapiens
[2] = target: T1, Full-length human PRMT8 (Homo sapiens, UniProt Q9NR22); assay: PRMT8 biochemical assay (3H-SAM Flashplate, peptide substrate)
T1 construct: Full-length human PRMT8 (NM_019854.4) isoform 1 transcript clone; made in house
Excerpt: General Materials. S-adenosylmethionine (SAM), S-adenosylhomocysteine (SAH), bicine, Tween20, dimethylsulfoxide (DMSO), bovine skin gelatin (BSG), isopropyl-β-D-thiogalactopyranoside (IPTG), and Tris(2-carboxyethyl)phosphine hydrochloride solution (TCEP) were purchased from Sigma-Aldrich at the highest level of purity possible. ^3H-SAM was purchase from American Radiolabeled Chemicals with a specific activity of 80 Ci/mmol. 384-well streptavidin Flashplates were purchased from PerkinElmer.
Substrates. Peptide representative of human histone H4 residues 31-45 was synthesized with an N-terminal linker-affinity tag motif and a C-terminal amide cap by 21st Century Biochemicals.
Protein Expression. E. coli (BL21(DE3) Gold, Stratagene) made competent by the CaCl2 method were transformed with the PRMT8 construct and ampicillin selection. Protein over-expression was accomplished by growing the PRMT8 expressing E. coli clone and inducing expression with 0.3 mM IPTG at 16° C. The culture was grown for 12 hours, harvested by centrifugation, and stored at −80° C. for purification.
Protein Purification. […] GST-tagged PRMT8 was eluted with 50 mM Tris, 2 mM glutathione, pH 7.8. Pooled fractions were cleaved by thrombin (10 U) and dialysed in buffer A. GST was removed by reloading the cleaved protein sample onto glutathione sepharose column and PRMT8 was collected in the flow-through fractions. PRMT8 was purified further by ceramic hydroxyapatite chromatography. The column was washed with 50 mM phosphate buffer, 100 mM NaCl, 5% glycerol, 5 mM β-mercaptoethanol, pH 7.8 and PRMT8 was eluted by 100 mM phosphate in the same buffer. Protein was concentrated and buffer was exchanged to 50 mM Tris, 300 mM NaCl, 10% glycerol, 5 mM β-mercaptoethanol, pH 7.8 by ultrafiltration.
General Procedure for PRMT8 Enzyme Assays on Peptide Substrates. The assays were all performed in a buffer consisting of 20 mM Bicine (pH=7.6), 1 mM TCEP, 0.005% BSG, and 0.002% Tween 20, prepared on the day of use. […] DMSO (1 ul) was added to Columns 11, 12, 23, 24, rows A-H for the maximum signal control and 1 ul of SAH, a known product and inhibitor of PRMT8, was added to columns 11, 12, 23, 24, rows I-P for the minimum signal control. A cocktail (40 ul) containing the PRMT8 enzyme was added by Multidrop Combi (Thermo-Fisher). The compounds were allowed to incubate with PRMT8 for 30 min at room temperature, then a cocktail (10 ul) containing ^3H-SAM and peptide was added to initiate the reaction (final volume=51 ul). […] The assays were stopped by the addition of non-radiolabeled SAM (10 ul) to a final concentration of 400 uM, which dilutes the ^3H-SAM to a level where its incorporation into the peptide substrate is no longer detectable. 50 ul of the reaction in the 384-well polypropylene plate was then transferred to a 384-well Flashplate and the biotinylated peptides were allowed to bind to the streptavidin surface for at least 1 hour before being washed once with 0.1% Tween20 in a Biotek ELx405 plate washer. The plates were then read in a PerkinElmer TopCount plate reader to measure the quantity of ^3H-labeled peptide bound to the Flashplate surface, measured as disintegrations per minute (dpm) or alternatively, referred to as counts per minute (cpm).
Where dpm=disintegrations per minute, cmpd=signal in assay well, and min and max are the respective minimum and maximum signal controls.
Where top and bottom are the normally allowed to float, but may be fixed at 100 or 0 respectively in a 3-parameter fit. The Hill Coefficient normally allowed to float but may also be fixed at 1 in a 3-parameter fit. Y is the % inhibition and X is the compound concentration.

[3] = In Cell Western, RKO cells, 72 hours, percent activation of mono-methyl arginine signal, read-out: EC30

T1 sequence (Q9NR22 whole entry, canonical isoform): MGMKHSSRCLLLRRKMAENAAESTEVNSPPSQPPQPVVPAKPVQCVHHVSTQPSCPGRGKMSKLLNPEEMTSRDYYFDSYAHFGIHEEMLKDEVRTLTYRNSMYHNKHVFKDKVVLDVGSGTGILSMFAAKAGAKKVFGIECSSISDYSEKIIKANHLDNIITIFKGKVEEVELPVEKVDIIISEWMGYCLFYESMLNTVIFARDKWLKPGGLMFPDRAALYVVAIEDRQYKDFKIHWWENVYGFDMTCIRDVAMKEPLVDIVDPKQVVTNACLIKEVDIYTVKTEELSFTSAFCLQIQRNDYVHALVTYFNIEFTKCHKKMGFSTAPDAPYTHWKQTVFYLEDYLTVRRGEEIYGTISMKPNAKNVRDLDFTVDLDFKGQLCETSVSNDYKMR

| Structure (SMILES) | EC30 [1, 3] | IC50 [2] | EC30 ([1]; RKO, 72 h) |
| --- | --- | --- | --- |
| Cc1cc(-c2n[nH]cc2CN(C)CCN)cc(C)c1OC(C)C [Compound 199, N^1-((3-(4-isopropoxy-3,5-dimethylphenyl)-1H-pyrazol-4-yl)methyl)-N^1-methylethane-1,2-diamine] | < 3 µM | 0.101 to 1 µM |  |
| CN(CCN)Cc1c[nH]nc1-c1ccc(OCCCO)cc1 [Compound 195] | 3.01 to 12 µM | 0.101 to 1 µM |  |
| CNCCN(C)Cc1cn(C2CCCCC2)nc1-c1ccc(OC(C)C)cc1 [Compound 256] | > 12 µM | 1.01 to 3 µM |  |
| CNCCN(C)Cc1cnn(CC(=O)OC)c1-c1ccc(OC(C)C)cc1 [Compound 249] |  | 1.01 to 3 µM | 3.01 to 12 µM |
| CNCCN(C)Cc1c[nH]nc1-c1ccccc1OC [Compound 23] | > 12 µM | 3.01 to 10 µM |  |
| CNCCN(C)Cc1c[nH]nc1-c1ccc(C)cc1C [Compound 29] | > 12 µM | 1.01 to 3 µM |  |
| CNCCN(C)Cc1c[nH]nc1-c1ccc(OCCCOC)cc1 [Compound 209] | < 3 µM | 0.101 to 1 µM |  |
| CN(CCN)Cc1n[nH]cc1-c1ccc(Oc2ccccc2)cc1 [Compound 203] | < 3 µM | 0.101 to 1 µM |  |
| CNCCN(C)Cc1cnn(C)c1-c1ccc(Oc2ccccc2)cc1 [Compound 208] | < 3 µM | 0.101 to 1 µM |  |
| CN(CCN)Cc1c[nH]nc1-c1ccc(Oc2cccc(F)c2)cc1 [Compound 205] | < 3 µM | 0.101 to 1 µM |  |
| CCN(C)C(=O)c1cccc(-c2n[nH]cc2CN(C)CCN)c1 [Compound 198] | > 12 µM | > 10 µM |  |
| CCC(=O)N1CCN(c2ccc(-c3n[nH]cc3CN(C)CCN)cc2)CC1 [Compound 189] | > 12 µM | 1.01 to 3 µM |  |
| CC(C)CN1C(=O)COc2ccc(-c3n[nH]cc3CN(C)CCN)cc21 [Compound 191] | > 12 µM | 3.01 to 10 µM |  |
| CNCCN(C)Cc1cnn(CCCC(O)CO)c1-c1ccc(F)cc1 (centres unmarked) [Compound 31] | > 12 µM | 3.01 to 10 µM |  |
| CNCCN(C)Cc1cnn(C2CC2)c1-c1ccc(F)cc1 [Compound 14] | 3.01 to 12 µM | 1.01 to 3 µM |  |
| CN(CCN)Cc1c[nH]nc1-c1ccc(Oc2ccccc2)c(C(=O)N(C)C)c1 [Compound 226] | > 12 µM | 3.01 to 10 µM |  |
| CNCCN(C)Cc1c[nH]nc1-c1cccc(O)c1 [Compound 26] | > 12 µM | 1.01 to 3 µM |  |
| CN(CCN)Cc1c[nH]nc1-c1ccc2c(c1)OCC(=O)N2C [Compound 192] | > 12 µM | 1.01 to 3 µM |  |
| CN(CCN)Cc1c(-c2ccc(C#N)cc2)ncn1C [Compound 222] | > 12 µM | 3.01 to 10 µM |  |
| CNCCN(C)Cc1c[nH]nc1-c1ccc(OCCCOC)c(Cl)c1 [Compound 228] | < 3 µM | 0.101 to 1 µM |  |
| CNCCN(C)Cc1c[nH]nc1-c1ccc(N)cc1 [Compound 33] | > 12 µM | 1.01 to 3 µM |  |
| CN(CCN1CCC1)Cc1c[nH]nc1-c1ccc(C#N)cc1 [Compound 185] | > 12 µM | 3.01 to 10 µM |  |
| CCCc1ccc(-c2n[nH]cc2CN(C)CCNC)cc1 [Compound 20] | < 3 µM | < 0.1 µM |  |
| CN(CCN)Cc1c[nH]nc1-c1ccc2c(c1)N(C)C(=O)CO2 [Compound 196] | > 12 µM | 1.01 to 3 µM |  |
| CNCCN(C)Cc1c[nH]nc1-c1ccccc1OC(F)(F)F [Compound 40] | > 12 µM | 3.01 to 10 µM |  |
